Results as given in patent US20170027902A1, “Use of a Composition Comprising a Flavonol, A Flavonoid, and a Fatty Acid in the Treatment of Oxidative Injuries Due to Mitochondrial Dysfunction” (priority 2014, published 2017).

Tests used:
[1] = test system: primary cultures of mouse cortical neurons; assay: Mitochondrial respiration (Seahorse XF24, oxygen consumption rate); assay type: cell-based; settings: 0.1 μM, FCCP 2 μM
Protocol: The effects of E, Q and E+Q on key parameters of mitochondrial respiration in primary cultures of mouse cortical neurons were measured using a Seahorse Bioscience XF24 Extracellular Flux Analyzer XF24 instrument. Oxygen consumption rate (OCR) in fmol/cell were normalized by counting viable cortical neurons at the end of each experiment. A seeding density of 80,000 neurons/well was sufficient to obtain a measurable basal OCR (4-6 fmol/min/cell) permitting both OCR induction and inhibition to be assessed. Mitochondrial function in cortical neurons was measured by the sequential injection of oligomycin (2 μM), FCCP (2 μM), rotenone (300 nM) and antimycin (5 μM) to control and OGD-exposed cultures treated with various concentrations of E, Q or E+Q (0.1 μM).

[2] = test system: primary mouse cortical cultures; assay: Confocal imaging of calcium transients and mitochondrial membrane potential; assay type: cell-based; settings: for number of neurons displaying elevated [Ca2+]c / oscillations: 3 μg/ml (~10 μM); for number / frequency of [Ca2+]c oscillations in cortical neurons: Q 3 μg/ml added after pretreatment with E 3 μg/ml
Protocol: Embryonic day 16 timed pregnant CD1 out-bred mice were obtained from Charles River Laboratories (Charles River; QC, Canada). Primary cortical neuron cultures were prepared from cerebral cortices of wild type (WT) CD1 mouse embryos as described previously, with the following modifications. Pregnant CD1 females were heavily anaesthetized with isoflurane vapor (Benson Medical Industries, Inc., Markham, ON) before being euthanized by decapitation. The embryonic day 16 (E16) fetuses were immediately removed from the sacrificed pregnant females by cesarean section and placed in ice-cold Hank's Balanced Salt Solution (HBSS) (GIBCO; Invitrogen, Amarillo, Calif.). The meninges were removed from the brains and cortices were isolated under a dissecting microscope. The cortices from each embryo were placed in individual wells of a 24-well plate (Corning; Lowell, Mass.), containing 1 ml of ice-cold PBS (GIBCO; […] Under sterile conditions, the tissue was briefly minced, transferred to 15 ml sterile conical tubes (Corning; Lowell, Mass.) and centrifuged at 350×g for 3 min at room temperature. The dissecting solution was discarded and the cortical neurons were then dissociated trituration with fire-polished glass pipettes followed by incubating in 1 ml of 0.1% trypsin solution (0.1% w/v trypsin (Invitrogen, Amarillo, Calif.) in PBS with 1 mM Mg^2+ and 13 mM glucose) at 37° C. for 15 min. The trypsinization was inhibited by the addition of 0.5 ml of trypsin inhibitor solution that also contained DNase I (0.06% w/v trypsin inhibitor (Invitrogen; Amarillo, Calif.) and 0.01% DNase I (Invitrogen; […] The tubes were mixed briefly and the cells were centrifuged at 350×g for 3 min at room temperature. The trypsin and inhibitor solutions were discarded and each cell pellet was suspended in 1 ml of cortical neuron plating medium (Neurobasal medium (Invitrogen, Amarillo, Calif.) with 10% fetal bovine serum (GIBCO; Invitrogen; Amarillo, Calif.), 2% B27 supplement, 1 mM L-glutamine, and 1% Gentamycin (Invitrogen; […] Cortical neurons were plated in 96-well plates (Corning; Lowell, Mass.) that were pre-coated with poly-D-lysine (PDL; Sigma-Aldrich; Oakville, ON) according to the procedure described by the manufacturer. Briefly, plates were coated immediately before use with 100 μg/ml PDL for 5-10 min (50 μl/well), washed three times with tissue-culture grade water and left to dry for 2 h before cells were introduced. Cortical neurons were plated at a concentration of 1×10^6 cells/ml (100 µl/well) and medium was completely changed the day after plating to serum-free cortical neuron medium (Neurobasal medium with 2% B27 supplement, 5 mM HEPES, 0.5 mM L-glutamine, and 20 μg/ml Gentamycin), which was replaced every 3 days in culture. Cultures were maintained in a humidified, 37° C. incubator with 5% CO2. Experiments were performed on the eighth day in vitro (DIV10). For measurements of mitochondrial membrane potential (ΔΨm), cells were loaded with 25 nM tetrannethylrhodamine methyl ester (TMRM) for 30 min at room temperature and the dye was present during the experiment. TMRM is used in the redistribution mode to assess ΔΨm with a reduction in TMRM fluorescence indicating mitochondrial depolarization. Neurons were loaded for 30 min at room temperature with X-rhod-1 AM (0.5 μM) and Fluo-3 AM (0.5 μM) (Molecular Probes, Invitrogen) prior to imaging in HEPES-buffered salt solution (HBSS) composed of (mM): 156 NaCl, 3 KCl, 2 MgSO4, 1.25 KH2PO4, 2 CaCl2, 10 glucose and 10 HEPES, pH adjusted to 7.35 with NaOH. Confocal images were obtained using a 510 CLSM (Zeiss, Thornwood, N.Y.) equipped with a META detection system and a […] oil-immersion objective. The 488 nm Argon laser line was used to excite fluo-3 fluorescence, which was measured using a bandpass filter from 505 to 550 nm. Illumination intensity was kept to a minimum (at 0.1-0.2% of laser output) to avoid phototoxicity and the pinhole was set to give an optical slice of 2 μm. […]

[3] = ten minutes after addition, fluo-3
[4] = sequential addition of 0.3 and 1 μM

Compound	loss of spare respiratory capacity (SRC) after OGD [1]	number of neurons displaying [Ca2+]c oscillations ([2]; 1 μg/ml (~3 μM), ten minutes after addition, fluo-3)	number of neurons displaying [Ca2+]c oscillations ([2]; 1 μg/ml (~3 μM), ten minutes after addition, fluo-3, listed as quercetin)	number of neurons displaying elevated [Ca2+]c / oscillations [2, 3]	number of neurons displaying elevated [Ca2+]c / oscillations ([2]; ten minutes after addition, fluo-3, listed as quercetin)	frequency of neuronal [Ca2+]c oscillations ([2]; 1 and 3 μg/ml (~3-10 μM), concentration-dependent)	mitochondrial membrane potential (TMRM) ([2]; 1 and 3 μg/ml (~3 and 10 μM))	[Ca2+]m (mitochondrial) oscillations, x-rhod-1 ([2]; Q 3 μg/ml added after E 3 μg/ml)	number of neurons displaying [Ca2+]c oscillations ([2]; Q 3 μg/ml added after E 3 μg/ml, ten minutes later)	number of neurons displaying [Ca2+]c oscillations ([2]; Q 3 μg/ml added after E 3 μg/ml, ten minutes later, listed as quercetin)	number / frequency of [Ca2+]c oscillations in cortical neurons [2]	[Ca2+]c oscillations (fluo-4) [2, 4]	basal [Ca2+]c [2, 4]	mitochondrial membrane potential (TMRM) [2, 4]	[Ca2+]c oscillations in a cortical neuron ([2]; 3 μg/ml (~10 μM) alone)	[Ca2+]m (mitochondrial) oscillations, x-rhod-1 ([2]; 3 μg/ml (~10 μM) alone)	[Ca2+]c oscillations in a cortical neuron ([2]; 3 μg/ml (~10 μM) alone, listed as epicatechin)	number of neurons displaying elevated [Ca2+]c / oscillations ([2]; ten minutes after addition, fluo-3, listed as epicatechin)
O=c1c(O)c(-c2ccc(O)c(O)c2)oc2cc(O)cc(O)c12 [Q]	only partially reversed	small increase	increased	further elevation	increased	increased the frequency	modestly elevated	induction	did increase	increased	supra-additive increase	concentration dependent stimulation	moderate rise	elevation				
Oc1cc(O)c2c(c1)O[C@H](c1ccc(O)c(O)c1)[C@H](O)C2 [E, (2R,3R)-2-(3,4-dihydroxyphenyl)-3,4-dihydro-2H-chromene-3,5,7-triol]	only partially reversed			no change							enhanced the frequency				did not trigger	did not trigger	did not increase	did not increase
